{"source": "patent US20150216850A1", "about": "(priority 2012, published 2015)", "origin": "cited, not measured here", "key": {"[1]": {"tested_on": "Huntington's disease patients", "settings": "twice-daily doses of 45 mg over 12 weeks"}, "[2]": {"tested_on": "Huntington's disease patients"}}, "data": [{"smiles": "CCCN1CCC(c2cccc(S(C)(=O)=O)c2)CC1", "note": "[pridopidine]", "values": [{"measurement": "symptomatic relief (hand movements, gait and balance)", "setting": "patients with HD", "value": "significant symptomatic relief"}, {"measurement": "effect on total motor function", "setting": "[1]", "value": "significant effect"}, {"measurement": "tertiary endpoint UHDRS-TMS and individual items within the mMS (gait, dysarthria)", "setting": "[2]; 45 mg daily or 90 mg daily for 6 months", "value": "statistically significant effect"}, {"measurement": "primary endpoint: effect on subset of motor symptoms defined in the mMS", "setting": "[2]; 45 mg daily or 90 mg daily, at 26 weeks", "value": "not met"}]}]}
